Measurements reported in patent US9102619B2, “Derivatives of 1-phenyl-2-pyridinyl alkyl alcohols as phosphodiesterase inhibitors” (Chiesi Farmaceutici S.p.A., priority 2007, dated 2015).

What was measured:
[1] = test system: LPS-induced TNF-α release in peripheral blood mononuclear cells (PBMCs); assay: PDE4 inhibitory activity in the PBMCs assay (LPS-induced TNF-α release); assay type: cell-based; settings: human PBMCs, LPS 3 ng/ml, 18 hours, TNF-α by ELISA
Procedure: The assay, which is based on the known inhibitory activity exerted by PDE4 inhibitors on the lipopolysaccharides (LPS)-induced tumour necrosis factor-alpha (TNF-α release in peripheral blood mononuclear cells (PBMCs), was performed according to a method previously described (Hatzelmann A. et al., J. Pharmacol. Exp. Ther., 2001; 297:267-279; Draheim R. et al., J. Pharmacol. Exp. Ther., 2004; 308:555-563. Cryopreserved human PBMCs, (100 μl/well) were incubated in 96-well plates (10^5 cells/well), for 30 min, in the presence or absence (50 microl) of the test compounds whose concentrations ranged from 10^−12 M to 10^−6M. Subsequently, LPS (3 ng/ml) was added. After 18 hours of incubation at 37° C. in a humidified incubator under an atmosphere of 95% air and 5% CO2, culture medium was collected and TNF-α measured by ELISA.
The effects of the tested compounds were calculated as percentage of inhibition of TNF-α release, assuming LPS-induced TNF-α production in the absence of inhibitor compound as 100% and basal TNF-α production of PBMCs in the absence of LPS as 0%.

PDE4 enzyme = assay: In vitro PDE4 inhibitory activity in the cell free assay (cAMP disappearance, U937 cell supernatant); assay type: biochemical, human; settings: 1.6 μM cAMP, 30° C. 30 minutes
Procedure: The U937 human monocytic cell line was used as source of PDE4 enzyme. Cells were cultured, harvested and supernatant fraction prepared essentially as described in Torphy, T. J. et al., J. Pharmacol. Exp. Ther., 1992; 263:1195-1205. PDE4 activity was determined in cells supernatants by assaying cAMP disappearance from the incubation mixtures. 50 μl of cell supernatant were incubated at 30° C. for 30 minutes in a final volume of 200 μl in the presence of 1.6 μM cAMP with or without the test compound (50 μl).
The concentration of the test compounds ranged between 10^−12 M and 10^−6 M. Reactions were stopped by heat inactivation (2.5 minutes at 100° C.) and residual cAMP was measured using an electrochemiluminescence (ECL)-based immunoassay.
Percentage of inhibition of PDE4 activity was calculated, assuming cAMP disappearance in the absence of inhibitors as 100% and cAMP disappearance in heat inactivated samples as 0%.

HPDE4 = assay: Competition for high affinity HPDE4 ([H^3] rolipram binding); settings: 50% inhibition of the binding of [H^3] rolipram
Text: (§1) Advantageously the compounds of the invention are characterized by selectivity toward LPDE4 higher than that toward HPDE4 as obtained by the determination of their IC50. In the case of LPDE4, the IC50 is the molar concentration of the test compound producing 50% inhibition of cAMP disappearance, assessed as described in Cortijo, J. et al., Br. J. Pharmacol., 1993, 108: 562-568, while in the case of HPDE4, the IC50 is the molar concentration of the test compound producing 50% inhibition of the binding of [H^3] rolipram, assessed as described in Duplantier, A. J. et al., J. Med. Chem., 1996; 39: 120-125. Preferably the HPDE4/LPDE4 IC50 ratio for the compounds of the invention is higher than 5, preferably higher than 10, more preferably higher than 20 and even more preferably higher than 100.
(§2) The affinity toward LPDE4 and HPDE4 was assessed as previously described respectively in Cortijo J. et al., Br. J. Pharmacol., 1993, 108: 562-568 and Duplantier A. J. et al., J. Med. Chem., 1996; 39: 120-125. In the case of LPDE4, the IC50 is the molar concentration of the test compound producing 50% inhibition of cAMP disappearance, while in the case of HPDE4, the IC50 is the molar concentration of the test compound producing 50% inhibition of the binding of [H^3] rolipram.

LPDE4 [2] = assay: Inhibition of low affinity LPDE4 (cAMP disappearance); assay type: biochemical; settings: ratio of IC50 values
Text: as §1, §2

LPDE4 [3] = test system: T1, LPDE4; assay: as above; assay type: biochemical; settings: 50% inhibition of cAMP disappearance
T1 construct: LPDE4 IC50
Text: as §1, §2

For `COc1ccc(C(Cc2c(Cl)cncc2Cl)OC(=O)[C@@H](C)c2ccc(CC(C)C)cc2)cc1OC` (stereo partly drawn) [Compound 1, (S)-2-(4-isobutyl-phenyl)-propionic acid 2-(3,5-dichloro-pyridin-4-yl)-1-(3,4-dimethoxy-phenyl)-ethyl ester], which IC50 ([1]; PBMC) is on record?
Its IC50 is 69 nM.

And the IC50 (PDE4 enzyme)?
Its IC50 is 118 nM.

Which IC50 ([1]; PBMC) does the source give for `COc1ccc(C(Cc2c(Cl)cncc2Cl)OC(=O)Cc2ccccc2)cc1OC` (stereo not drawn) [Compound 2, phenyl-acetic acid 2-(3,5-dichloro-pyridin-4-yl)-1-(3,4-dimethoxy-phenyl)-ethyl ester] here?
Its IC50 is 89 nM.

Which IC50 ([1]; PBMC) does the source give for `COc1ccc(C(Cc2c(Cl)cncc2Cl)OC(=O)C2(c3ccccc3)CC2)cc1OC` (stereo not drawn) [Compound 3, 1-phenyl-cyclopropanecarboxylic acid 2-(3,5-dichloro-pyridin-4-yl)-1-(3,4-dimethoxy-phenyl)-ethyl ester] here?
The IC50 was 52 nM.

And the IC50 (PDE4 enzyme)?
Its IC50 is 118 nM.

`COc1ccc(C(=O)OC(Cc2c(Cl)cncc2Cl)c2ccc(OC)c(OC)c2)cc1OC` (stereo not drawn) [Compound 4, 3,4-dimethoxy-benzoic acid 2-(3,5-dichloro-pyridin-4-yl)-1-(3,4-dimethoxy-phenyl)-ethyl ester] was tested. Which IC50 ([1]; PBMC) did it give?
Its IC50 is 34.2 nM.

What about the IC50 (PDE4 enzyme) of the same compound?
The IC50 was 3.4 nM.

What does the source list for `CC(C)(C)OC(=O)N[C@@H](C(=O)OC(Cc1c(Cl)cncc1Cl)c1ccc(OC(F)F)c(OCC2CC2)c1)c1ccccc1` (stereo partly drawn) [Compound 6, (R)-tert-butoxycarbonylamino-phenyl-acetic acid 1-(3-cyclopropylmethoxy-4-difluoromethoxy-phenyl)-2-(3,5-dichloro-pyridin-4-yl)-ethyl ester]?
IC50 ([1]; PBMC): 95 nM; IC50 (PDE4 enzyme): 9 nM

With `N[C@H](C(=O)OC(Cc1c(Cl)cncc1Cl)c1ccc(OC(F)F)c(OCC2CC2)c1)c1ccccc1` (stereo partly drawn) [Compound 7, (S)-amino-phenyl-acetic acid 1-(3-cyclopropylmethoxy-4-difluoromethoxy-phenyl)-2-(3,5-dichloro-pyridin-4-yl)-ethyl ester] as the compound, how does the IC50 ([1]; PBMC) read?
The IC50 was 99 nM.

What about the IC50 (PDE4 enzyme) of the same compound?
The IC50 was 7 nM.

`N[C@@H](C(=O)OC(Cc1c(Cl)cncc1Cl)c1ccc(OC(F)F)c(OCC2CC2)c1)c1ccccc1` (stereo partly drawn) [Compound 8, (R)-amino-phenyl-acetic acid 1-(3-cyclopropylmethoxy-4-difluoromethoxy-phenyl)-2-(3,5-dichloro-pyridin-4-yl)-ethyl ester] was tested. Which IC50 (PDE4 enzyme) did it give?
Its IC50 is 22 nM.

For `COc1ccc(C(Cc2c(Cl)cncc2Cl)OC(=O)C(C)c2ccc(CC(C)C)cc2)cc1OC1CCCC1` (stereo not drawn) [Compound 9, 2-(4-isobutyl-phenyl)-propionic acid 1-(3-cyclopentyloxy-4-methoxy-phenyl)-2-(3,5-dichloro-pyridin-4-yl)-ethyl ester], which IC50 (HPDE4) is on record?
The IC50 was 399 nM.

And the IC50 ([1]; PBMC)?
The IC50 was 85 nM.

And the HPDE4/LPDE4 (LPDE4 [2])?
Its HPDE4/LPDE4 is 541.

What about the IC50 (LPDE4 [3]) of the same compound?
The IC50 was 0.738 nM.

What about the IC50 (PDE4 enzyme) of the same compound?
The IC50 was 22 nM.

How did the IC50 (HPDE4) turn out when `O=C(OC(Cc1c(Cl)cncc1Cl)c1ccc(OC(F)F)c(OCC2CC2)c1)c1ccc(OC(F)F)c(OCC2CC2)c1` (stereo not drawn) [Compound 11, 3-cyclopropylmethoxy-4-difluoromethoxy-benzoic acid 1-(3-cyclopropylmethoxy-4-difluoromethoxy-phenyl)-2-(3,5-dichloro-pyridin-4-yl)-ethyl ester] was run?
The IC50 was 153 nM.

And the IC50 ([1]; PBMC)?
The IC50 was 51 nM.

What about the HPDE4/LPDE4 (LPDE4 [2]) of the same compound?
Its HPDE4/LPDE4 is 1319.

And the IC50 (LPDE4 [3])?
The IC50 was 0.116 nM.

What about the IC50 (PDE4 enzyme) of the same compound?
The IC50 was 12 nM.

How did the IC50 ([1]; PBMC) turn out when `CC(C)Cc1ccc(C(C)C(=O)OC(Cc2c(Cl)cncc2Cl)c2ccc(OC(F)F)c(OCC3CC3)c2)cc1` (stereo not drawn) [Compound 12, 2-(4-isobutyl-phenyl)-propionic acid 1-(3-cyclopropylmethoxy-4-difluoromethoxy-phenyl)-2-(3,5-dichloro-pyridin-4-yl)-ethyl ester] was run?
The IC50 was 456 nM.

And the IC50 (PDE4 enzyme)?
Its IC50 is 12 nM.

`COc1ccc(C(Cc2c(Cl)c[n+]([O-])cc2Cl)OC(=O)C(C)c2ccc(CC(C)C)cc2)cc1OC` [Compound 13, (S)-2-(4-isobutyl-phenyl)-propionic acid 2-(3,5-dichloro-1-oxy-pyridin-4-yl)-1-(3,4-dimethoxy-phenyl)-ethyl ester] was tested. Which IC50 ([1]; PBMC) did it give?
The IC50 was 13 nM.

With `O=C(OC(Cc1c(Cl)c[n+]([O-])cc1Cl)c1ccc(OC(F)F)c(OCC2CC2)c1)c1ccc(OC(F)F)c(OCC2CC2)c1` (stereo not drawn) [Compound 14, 3-cyclopropylmethoxy-4-difluoromethoxy-benzoic acid 1-(3-cyclopropylmethoxy-4-difluoromethoxy-phenyl)-2-(3,5-dichloro-1-oxy-pyridin-4-yl)-ethyl ester] as the compound, how does the IC50 ([1]; PBMC) read?
The IC50 was 2 nM.

With `CC(C)Cc1ccc(C(C)C(=O)OC(Cc2c(Cl)c[n+]([O-])cc2Cl)c2ccc(OC(F)F)c(OCC3CC3)c2)cc1` (stereo not drawn) [Compound 15, 2-(4-isobutyl-phenyl)-propionic acid 1-(3-cyclopropylmethoxy-4-difluoromethoxy-phenyl)-2-(3,5-dichloro-1-oxy-pyridin-4-yl)-ethyl ester] as the compound, how does the IC50 (HPDE4) read?
The IC50 was 2.17 nM.

And the IC50 [1]?
The IC50 was 15 nM.

What about the HPDE4/LPDE4 (LPDE4 [2]) of the same compound?
The HPDE4/LPDE4 was 273.

And the IC50 (LPDE4 [3])?
The IC50 was 0.169 nM.

What about the IC50 (PDE4 enzyme) of the same compound?
The IC50 was 8.6 nM.

`COc1ccc(C(Cc2c(Cl)cncc2Cl)OC(=O)C(C)c2ccc(N)cc2)cc1OC` (stereo not drawn) [Compound 16, 2-(4-amino-phenyl)-propionic acid 2-(3,5-dichloro-pyridin-4-yl)-1-(3,4-dimethoxy-phenyl)-ethyl ester] was tested. Which IC50 ([1]; PBMC) did it give?
Its IC50 is 36 nM.

What about the IC50 (PDE4 enzyme) of the same compound?
The IC50 was 6.3 nM.

Which IC50 (HPDE4) does the source give for `COc1ccc(C(O)Cc2c(Cl)c[n+]([O-])cc2Cl)cc1OC1CCCC1` (stereo not drawn) [Compound 20] here?
Its IC50 is 299 nM.

And the HPDE4/LPDE4 (LPDE4 [2])?
Its HPDE4/LPDE4 is 394.

What about the IC50 (LPDE4 [3]) of the same compound?
The IC50 was 0.759 nM.
